Biological target: T1, HUG (HELP-UnaG) (Anguilla japonica, UniProt P0DM59)
T1 construct: entire UnaG (139 aa) fused to the C-terminus of the synthetic human elastin-like polypeptide HELP (536 aa, VAPGVG hexapeptide repeats); fusion of 675 aa, 60,406 Da; expressed in E. coli, purified by inverse phase transition
Assay: fluorescence titration (ex […] nm, em […] nm), nonlinear fit of […] binding model

T1 sequence (P0DM59 whole entry, the tested form may be a part): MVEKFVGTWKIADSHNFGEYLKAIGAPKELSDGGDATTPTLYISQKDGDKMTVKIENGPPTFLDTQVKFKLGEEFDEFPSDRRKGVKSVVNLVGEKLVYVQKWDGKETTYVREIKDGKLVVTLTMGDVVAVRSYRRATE

Kd: 1.1 nM
SMILES: C=CC1=C(C)/C(=C/c2[nH]c(Cc3[nH]c(/C=C4\NC(=O)C(C)=C4C=C)c(C)c3CCC(=O)O)c(CCC(=O)O)c2C)NC1=O [bilirubin]

Reference: PMC9364316, “Macromolecular and Solution Properties of the Recombinant Fusion Protein HUG” (Biomacromolecules, 2022)
